Patent US6872724B2, “Polymorphs with tyrosine kinase activity” (Merck & Co., Inc., priority 2002, dated 2005)

Biological target: T1, human KDR (Homo sapiens, UniProt P35968)
T1 construct: cloning the cytoplasmic domain of the KDR kinase as an in frame fusion at the carboxy terminus of the GST gene; made in house; host or cells: Spodoptera frugiperda (Sf21) insect cells, baculovirus vector pAcG2T
Test: VEGF receptor kinase assay
Assay type: biochemical
Experimental: I. VEGF Receptor Kinase Assay
VEGF receptor kinase activity is measured by incorporation of radio-labeled phosphate into polyglutamic acid, tyrosine, 4:1 (pEY) substrate. The phosphorylated pEY product is trapped onto a filter membrane and the incorporation of radio-labeled phosphate quantified by scintillation counting.
VEGF Receptor Kinase The intracellular tyrosine kinase domains of human KDR (Terman, B. I. et al. Oncogene (1991) vol. 6, pp. 1677-1683.) and Flt-1 (Shibuya, M. et al. Oncogene (1990) vol. 5, pp. 519-524) were cloned as glutathione S-transferase (GST) gene fusion proteins. This was accomplished by cloning the cytoplasmic domain of the KDR kinase as an in frame fusion at the carboxy terminus of the GST gene. Soluble recombinant GST-kinase domain fusion proteins were expressed in Spodoptera frugiperda (Sf21) insect cells (Invitrogen) using a baculovirus expression vector (pAcG2T, Pharmingen). […]

T1 sequence (P35968 786-1356 limits assumed): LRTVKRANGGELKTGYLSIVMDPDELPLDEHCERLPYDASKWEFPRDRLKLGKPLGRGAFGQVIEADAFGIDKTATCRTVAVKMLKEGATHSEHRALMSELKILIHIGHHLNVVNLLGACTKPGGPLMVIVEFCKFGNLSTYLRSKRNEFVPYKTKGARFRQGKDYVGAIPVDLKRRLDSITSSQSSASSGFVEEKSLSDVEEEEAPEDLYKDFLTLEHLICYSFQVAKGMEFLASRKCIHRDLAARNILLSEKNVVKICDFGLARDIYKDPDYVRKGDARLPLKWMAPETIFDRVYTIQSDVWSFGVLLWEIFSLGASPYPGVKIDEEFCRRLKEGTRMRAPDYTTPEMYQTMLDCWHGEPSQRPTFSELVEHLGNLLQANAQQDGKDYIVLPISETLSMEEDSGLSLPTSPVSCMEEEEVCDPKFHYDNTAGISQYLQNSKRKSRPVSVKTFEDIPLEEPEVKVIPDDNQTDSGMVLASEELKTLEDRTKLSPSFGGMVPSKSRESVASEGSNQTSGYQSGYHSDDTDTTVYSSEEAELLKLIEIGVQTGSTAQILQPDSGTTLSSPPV

kinase inhibitory activity: inhibits the kinase KDR
SMILES: CNC(=O)N1CCN(Cc2ccnc(Nc3ncc(C#N)s3)c2)CC1 [Compound 4-4, 4-[2-(5-cyano-thiazol-2-ylamino)-pyridin-4-ylmethyl]-piperazine-1-carboxylic acid methylamide]
